Measured values taken from patent publication US20040171613A1, “Therapeutic agent for non-immediate type allergic diseases” (JAPAN TOBACCO INC., priority 2001, published 2004).

Experiments:
[1] = system: WBB6F1-+/+ and WBB6F1-W/Wv mice; assay: 2-AG-E-induced ear swelling in mast cell-deficient mice; format: in vivo, mouse; settings: topical 2-AG-E 100 mg/mL
Procedure: The degree of allergic symptoms was examined in mice deficient (partially deficient) of mast cells, which cells are considered to largely contribute to allergic reactions.
Female mice of WBB6F1-+/+ (normal mouse) strain and WBB6F1-W/W^v (mast cell-deficient mouse) strain were purchased from Japan SLC, Inc. and used as experimental animals.
10 μL 2-AG-E (100 mg/mL acetone) was applied on each side of the left ears of the mice on the first day of experiment.
The swelling of the ear was measured over time before and after the application of 2-AG-E using a dial thickness gauge. The difference between the values measured before and after the antigen application was defined as the degree of ear swelling. Then, AUC was determined from the changes in the degree of ear swelling with the time course and given as mean ± standard error (S.E.). Student's t-test was used in the statistical treatment. A significance level less than 5% was assumed to be significant.

mouse ear = assay: ear swelling induced by application of CB2 agonist or arachidonic acid; format: in vivo; settings: mouse, in vivo
Procedure: Therefore, 2-arachidonoylglycerol ether (2-AG-E), the stable form of an endogenous ligand candidate 2-arachidonoylglycerol, and a specific CB2 agonist HU-308 were examined whether they directly induce ear swelling and compared to the ear swelling induced by arachidonic acid (AA).
Synthetically produced 2-AG-E and HU-308 were prepared with acetone to 1 or 10% (w/v) and 10% (w/v), respectively, and AA (Sigma) was prepared with acetone to 1.25% (w/v), on needed basis. 10 μL each of these substances was applied on each side of the left ear.

CB2 = CB2 (Homo sapiens, UniProt P34972); assay: cAMP production in forskolin-stimulated hCB2-expressing CHO cells; format: cell-based; parameters: expressed in transfected cells; host or cells: CHO cells
Sequence of CB2 (P34972 whole entry): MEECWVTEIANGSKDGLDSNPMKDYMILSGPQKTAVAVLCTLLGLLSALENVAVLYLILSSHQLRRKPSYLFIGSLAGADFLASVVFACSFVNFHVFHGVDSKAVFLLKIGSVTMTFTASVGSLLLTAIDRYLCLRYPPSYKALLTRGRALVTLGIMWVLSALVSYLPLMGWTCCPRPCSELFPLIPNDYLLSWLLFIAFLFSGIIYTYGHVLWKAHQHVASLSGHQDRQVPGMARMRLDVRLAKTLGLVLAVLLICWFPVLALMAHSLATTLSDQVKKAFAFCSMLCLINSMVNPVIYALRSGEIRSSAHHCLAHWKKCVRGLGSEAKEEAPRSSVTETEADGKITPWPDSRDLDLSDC

[2] = system: wild-type and CB2-deficient mice; assay: 2-AG-E-induced ear swelling in CB2-deficient mice; format: in vivo, mouse
Procedure: As described under the item of “7. IgE-dependent ear swelling in CB2-deficient mice”, female CB2-KO mice and female WT mice were used as experimental animals.
10 μL of 2-AG-E (100 mg/mL acetone) was applied on each side of the left ears of the mice on the first day of experiment.
The swelling of the ear was measured over time before and after the application of 2-AG-E using a dial thickness gauge. The difference between the values measured before and after the antigen application was defined as the degree of ear swelling. Then, AUC (area under the curve: the degree of ear swelling ×time) was determined from the changes of the degree of ear swelling with the time course, and given as mean ± standard error (S.E.). Student's t-test was used in the statistical treatment. A significance level less than 5% was assumed to be significant.

Structure (SMILES): CCCCC/C=C\C/C=C\C/C=C\C/C=C\CCCCOC(CO)CO [Compound 2-AG-E, 2-arachidonoylglycerol ether]
- 2-AG-E-induced dermatitis, mast cell-deficient (WBB6F1-W/Wv) mice [1]: developed dermatitis
- 2-AG-E-induced dermatitis, wild-type (WBB6F1-+/+) mice ([1]; vs mast cell-deficient mice): more severe dermatitis
- ear swelling induced by application on the ear (mouse ear): concentration-dependent ear swelling
- time of peak ear swelling after the application (mouse ear): 1 to 2 h
- forskolin-stimulated cAMP production (CB2): suppress the forskolin-stimulated cAMP production
- functional character at CB2 (inverse agonist / agonist) (CB2): agonists
- 2-AG-E-induced dermatitis, CB2-deficient mice, very late phase ([2]; CB2-KO): no significant inflammation was observed
- 2-AG-E-induced dermatitis, CB2-deficient mice, early phase ([2]; CB2-KO, topical 2-AG-E 100 mg/mL): developed dermatitis in the early phase
- 2-AG-E-induced dermatitis, CB2-deficient mice, late phase ([2]; CB2-KO, vs wild-type): inflammation was milder in the late phase
- 2-AG-E-induced dermatitis (ear swelling), wild-type mice ([2]; wild-type C57BL/6 J, topical 2-AG-E 100 mg/mL): developed dermatitis in the very late phase in addition to the early phase and late phase
